# Reference: PubChem BioAssay (NCI)
#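 How tested: cells in 96-well plates exposed to compound for 48 hours at five concentrations. TGI denotes the concentration required for complete inhibition of growth.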
# Tests used:
# Assay in all cases: NCI tumour cell line growth inhibition, 48 h
# IGROV1 ovarian = tested on: IGROV1 ovarian
# A498 renal = tested on: A498 renal
# DMS 273 small cell lung = tested on: DMS 273 small cell lung
# EKVX NSCLC = tested on: EKVX NSCLC
# NCI/ADR-RES ovarian = tested on: NCI/ADR-RES ovarian
# HOP-18 NSCLC = tested on: HOP-18 NSCLC
# DMS 114 small cell lung = tested on: DMS 114 small cell lung
# NCI-H23 lung = tested on: NCI-H23 lung
# SK-OV-3 ovarian = tested on: SK-OV-3 ovarian
# OVCAR-8 ovarian = tested on: OVCAR-8 ovarian
# HL-60(TB) leukemia = tested on: HL-60(TB) leukemia
# SF-539 CNS = tested on: SF-539 CNS
# LOX IMVI melanoma = tested on: LOX IMVI melanoma
# HT29 colon = tested on: HT29 colon
# SK-MEL-2 melanoma = tested on: SK-MEL-2 melanoma
# A549 NSCLC = tested on: A549 NSCLC
# SNB-78 CNS = tested on: SNB-78 CNS
# SN12K1 renal = tested on: SN12K1 renal
# NCI-H226 lung = tested on: NCI-H226 lung
# MALME-3M melanoma = tested on: MALME-3M melanoma
# UACC-62 melanoma = tested on: UACC-62 melanoma
# RXF 393 renal = tested on: RXF 393 renal
# P388/ADR leukemia = tested on: P388/ADR leukemia
# HCT-116 colon = tested on: HCT-116 colon
# SN12C renal = tested on: SN12C renal
# HCC-2998 colon = tested on: HCC-2998 colon
# K-562 leukemia = tested on: K-562 leukemia
# U251 CNS = tested on: U251 CNS
# CAKI-1 renal = tested on: CAKI-1 renal
# M19-MEL melanoma = tested on: M19-MEL melanoma
# COLO 205 colon = tested on: COLO 205 colon
# SF-268 CNS = tested on: SF-268 CNS
# KM12 colon = tested on: KM12 colon
# RPMI-8226 leukemia = tested on: RPMI-8226 leukemia
# HOP-92 NSCLC = tested on: HOP-92 NSCLC
# DLD-1 colon = tested on: DLD-1 colon
# XF 498 CNS = tested on: XF 498 CNS
# SNB-19 CNS = tested on: SNB-19 CNS
# NCI-H522 lung = tested on: NCI-H522 lung
# CCRF-CEM leukemia = tested on: CCRF-CEM leukemia
# UO-31 renal = tested on: UO-31 renal
# MOLT-4 leukemia = tested on: MOLT-4 leukemia
# OVCAR-5 ovarian = tested on: OVCAR-5 ovarian
# HCT-15 colon = tested on: HCT-15 colon
# SW-620 colon = tested on: SW-620 colon
# KM20L2 colon = tested on: KM20L2 colon
# SK-MEL-28 melanoma = tested on: SK-MEL-28 melanoma
# SNB-75 CNS = tested on: SNB-75 CNS
# HOP-62 NSCLC = tested on: HOP-62 NSCLC
# OVCAR-3 ovarian = tested on: OVCAR-3 ovarian
# SK-MEL-5 melanoma = tested on: SK-MEL-5 melanoma
# MCF7 breast = tested on: MCF7 breast
# OVCAR-4 ovarian = tested on: OVCAR-4 ovarian
# NCI-H460 lung = tested on: NCI-H460 lung
# P388 leukemia = tested on: P388 leukemia
# UACC-257 melanoma = tested on: UACC-257 melanoma
# SF-295 CNS = tested on: SF-295 CNS
structure (smiles),measurement,setting,value
C=C1C(O)C2(O)OCC34C(CC5C(C)=CC(=O)C(O)C5(C)C23)OC(=O)C(OC(=O)C/C=C/CCCCCCCC)C14 (configuration not stated),TGI,IGROV1 ovarian,30.3 nM
same,TGI,A498 renal,32.4 nM
same,TGI,DMS 273 small cell lung,96.4 nM
same,TGI,EKVX NSCLC,27 nM
same,TGI,NCI/ADR-RES ovarian,2550 nM
same,TGI,HOP-18 NSCLC,1100 nM
same,TGI,DMS 114 small cell lung,20.5 nM
same,TGI,NCI-H23 lung,81.5 nM
same,TGI,SK-OV-3 ovarian,606 nM
same,TGI,OVCAR-8 ovarian,24.1 nM
same,TGI,HL-60(TB) leukemia,200 nM
same,TGI,SF-539 CNS,37.2 nM
same,TGI,LOX IMVI melanoma,2000 nM
same,TGI,HT29 colon,115 nM
same,TGI,SK-MEL-2 melanoma,36.1 nM
same,TGI,A549 NSCLC,91.8 nM
same,TGI,SNB-78 CNS,57 nM
same,TGI,SN12K1 renal,22 nM
same,TGI,NCI-H226 lung,29 nM
same,TGI,MALME-3M melanoma,22.9 nM
same,TGI,UACC-62 melanoma,29.2 nM
same,TGI,RXF 393 renal,21.1 nM
same,TGI,P388/ADR leukemia,278 nM
same,TGI,HCT-116 colon,116 nM
same,TGI,SN12C renal,193 nM
same,TGI,HCC-2998 colon,30.8 nM
same,TGI,K-562 leukemia,251 nM
same,TGI,U251 CNS,22.7 nM
same,TGI,CAKI-1 renal,232 nM
same,TGI,M19-MEL melanoma,24.4 nM
same,TGI,COLO 205 colon,46.4 nM
same,TGI,SF-268 CNS,35 nM
same,TGI,KM12 colon,75.1 nM
same,TGI,RPMI-8226 leukemia,24.9 nM
same,TGI,HOP-92 NSCLC,22.9 nM
same,TGI,DLD-1 colon,28.7 nM
same,TGI,XF 498 CNS,35.1 nM
same,TGI,SNB-19 CNS,33.5 nM
same,TGI,NCI-H522 lung,20.2 nM
same,TGI,CCRF-CEM leukemia,166 nM
same,TGI,UO-31 renal,231 nM
same,TGI,MOLT-4 leukemia,533 nM
same,TGI,OVCAR-5 ovarian,773 nM
same,TGI,HCT-15 colon,97.9 nM
same,TGI,SW-620 colon,47.1 nM
same,TGI,KM20L2 colon,310 nM
same,TGI,SK-MEL-28 melanoma,31.1 nM
same,TGI,SNB-75 CNS,66.7 nM
same,TGI,HOP-62 NSCLC,41 nM
O=P(NCCCO)(OCc1ccccc1)N(CCCl)CCCl (configuration not stated),TGI,IGROV1 ovarian,> 100000 nM
same,TGI,A498 renal,> 100000 nM
same,TGI,DMS 273 small cell lung,> 100000 nM
same,TGI,NCI/ADR-RES ovarian,> 100000 nM
same,TGI,HOP-18 NSCLC,> 100000 nM
same,TGI,OVCAR-3 ovarian,> 100000 nM
same,TGI,NCI-H23 lung,> 100000 nM
same,TGI,SK-OV-3 ovarian,> 100000 nM
same,TGI,OVCAR-8 ovarian,> 100000 nM
same,TGI,HL-60(TB) leukemia,> 100000 nM
same,TGI,SF-539 CNS,> 100000 nM
same,TGI,SK-MEL-5 melanoma,> 100000 nM
same,TGI,LOX IMVI melanoma,> 100000 nM
same,TGI,HT29 colon,> 100000 nM
same,TGI,SK-MEL-2 melanoma,> 100000 nM
same,TGI,A549 NSCLC,> 100000 nM
same,TGI,SNB-78 CNS,> 100000 nM
same,TGI,SN12K1 renal,> 100000 nM
same,TGI,NCI-H226 lung,> 100000 nM
same,TGI,MALME-3M melanoma,> 100000 nM
same,TGI,UACC-62 melanoma,> 100000 nM
same,TGI,RXF 393 renal,> 100000 nM
same,TGI,MCF7 breast,> 100000 nM
same,TGI,OVCAR-4 ovarian,> 100000 nM
same,TGI,NCI-H460 lung,> 100000 nM
same,TGI,P388/ADR leukemia,> 100000 nM
same,TGI,HCT-116 colon,> 100000 nM
same,TGI,SN12C renal,> 100000 nM
same,TGI,HCC-2998 colon,> 100000 nM
same,TGI,K-562 leukemia,> 100000 nM
same,TGI,U251 CNS,> 100000 nM
same,TGI,P388 leukemia,> 100000 nM
same,TGI,UACC-257 melanoma,> 100000 nM
same,TGI,CAKI-1 renal,> 100000 nM
same,TGI,M19-MEL melanoma,> 100000 nM
same,TGI,COLO 205 colon,> 100000 nM
same,TGI,SF-268 CNS,> 100000 nM
same,TGI,KM12 colon,> 100000 nM
same,TGI,SF-295 CNS,> 100000 nM
same,TGI,HOP-92 NSCLC,> 100000 nM
same,TGI,DLD-1 colon,> 31600 nM
same,TGI,XF 498 CNS,> 100000 nM
same,TGI,SNB-19 CNS,> 100000 nM
same,TGI,NCI-H522 lung,> 100000 nM
same,TGI,CCRF-CEM leukemia,> 100000 nM
same,TGI,UO-31 renal,> 100000 nM
same,TGI,MOLT-4 leukemia,> 100000 nM
same,TGI,OVCAR-5 ovarian,> 100000 nM
same,TGI,HCT-15 colon,> 100000 nM
same,TGI,SW-620 colon,> 100000 nM
same,TGI,KM20L2 colon,> 100000 nM
same,TGI,SK-MEL-28 melanoma,> 100000 nM
same,TGI,SNB-75 CNS,> 100000 nM
